The target in one assay is T1, IDH2 R140Q + 1319M trans (Homo sapiens, UniProt P48735, I319M/R140Q).
T1 sequence (P48735 40-452 R140Q): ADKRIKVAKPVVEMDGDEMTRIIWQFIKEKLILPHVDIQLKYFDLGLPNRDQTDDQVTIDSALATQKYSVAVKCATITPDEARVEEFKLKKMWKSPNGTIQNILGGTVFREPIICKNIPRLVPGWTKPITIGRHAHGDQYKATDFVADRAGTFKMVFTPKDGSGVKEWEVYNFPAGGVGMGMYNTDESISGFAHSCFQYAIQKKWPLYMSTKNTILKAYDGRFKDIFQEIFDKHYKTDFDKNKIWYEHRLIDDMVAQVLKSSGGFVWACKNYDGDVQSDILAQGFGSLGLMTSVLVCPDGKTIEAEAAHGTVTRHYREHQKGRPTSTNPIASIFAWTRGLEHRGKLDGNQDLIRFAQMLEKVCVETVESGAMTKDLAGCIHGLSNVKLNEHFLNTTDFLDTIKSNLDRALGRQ
T1 sequence (P48735 40-452 I319M): T1 sequence (P48735 40-452 R140Q) with Q101R, I280M
Put plainly: Inhibition of 2-HG production in IDH2 mutant U-87 MG cells. Format: cell-based. Particulars: 72 hours incubation, 12.5K cells/well. On the procedure: (§1) Compounds and Formulation. Compound A may be synthesized as described in WO/18/111707. Compound A is prepared as a 20 mM stock in 100% DMSO (dimethyl sulfoxide) (Sigma, D2438) and diluted serially in 100% DMSO to achieve the desired concentrations. DMSO preparations are further diluted with cell culture media prior to addition in the assay.
(§2) Cell lines. U-87 MG cells (ATCC, HTB-14) are cultured and assayed in MEM (Gibco, 11095) with 2 mM GlutaMAX (Gibco, 35050), 1 mM Pyruvate (Gibco, 11360), 0.1 mM NEAA ((Non-essential amino acid) Gibco, 11140) and 10% dialyzed FBS (Fetal bovine serum) (Gibco, 26400).
(§3) Cell-based inhibition assays. Cell-based assays are performed by measuring 2-HG in U-87 MG cells in which IDH2 mutations are expressed.
(§4) DNA constructs encoding IDH2 mutations are introduced into U-87 MG cells using transfection (Promega FuGENE HD, E2311) or lentiviral transduction, and the IDH2-mutant expressing cell lines are selected using blasticidin (5 μg/ml) or puromycin (1 μg/ml). Second site mutations (Q316E, I319M, P167R, and G260A) are evaluated in cis (same monomer as driver mutation within dimer) or in trans (opposite monomer from driver mutation in dimer). For compound treatments, 12,500 or 50,000 cells per well in culture medium (150 μl or 100 μl, respectively) are plated in 96 well cell culture plates (Falcon, 353377) 2 hrs prior to treatment. Cells are treated with serial dilutions of compound A in standard growth media. Plates are incubated in a mammalian cell culture incubator (humidified, 37° C., 5% CO2) for 16 or 72 hrs. Following the incubation period, the media is aspirated and cell extracts are prepared by addition of ice-cold 80% methanol/20% water (100 μL) containing liquid chromatography-mass spectrometry (LC-MS) internal standards (1 μM ^13C4 α-KG and ^13C5 2-HG) per well for ion pairing LC-MS method. 96-well sample plates are then sealed, shaken at 450 rpm for 10 min, and then placed at −20° C. and stored until LC-MS analysis.
(§5) LC-MS metabolite analysis of conditioned media and cell lysates. The effect of inhibitors on the concentrations of 2-HG are determined by LC-MS analysis of cell lysates using an ion-pairing method as described below.
(§6) Calibration curves are prepared by spiking 2-HG and α-KG into 80% methanol/20% water containing LC-MS internal standards (1 μM ^13C4 α-KG and 1 μM ^13C5 2-HG). The quantitation of 2-HG and α-KG is accomplished using an AB Sciex 6500 mass spectrometer with an Electrospray Ionization (ESI) probe and interfaced with an Ultra Performance Liquid Chromatography (UHPLC) system in the negative multiple-reaction monitoring (MRM) mode. The UHPLC system consists of an Agilent 1290 binary pump, thermostatted column compartment (TCC), and sampler. The injection volume is 1 μL for cell culture extracts. The extracts are chromatographically resolved using a Hypercarb column, 2.1×20 mm, […] Javelin HTS (Thermo Scientific, PN: 35005-022135). Mobile phase A is water/10 mM tributylamine/15 mM acetic acid. Mobile phase B is acetonitrile/20 mM tributylamine/30 mM acetic acid. The solvent flow rate is 1.0 mL/min. The isocratic condition is kept at 26% mobile phase B. The valve, sample loop, and needle are washed with 50% acetonitrile: 50% methanol for 20 seconds. The column temperature is kept at 55° C. Calibration curves are calculated by least-square linear regression with 1/x weighting. 2-HG and α-KG are quantified using standard curve and ratio of the peak area of analytes to internal standard. Data analysis is performed using MultiQuant 3.0 (AB Sciex). The raw data are exported to Microsoft Excel spreadsheets.
(§7) Determination of IC50 Curves. IC50 curves for each compound are obtained using four parameter data fitting analysis in GraphPad/Prism software.

The next assay concerns the target T2, IDH2 R140Q_G260A cis (Homo sapiens, UniProt P48735, G260A/R140Q).
T2 construct: expressed in transfected cells; host or cells: U-87 MG
T2 sequence (P48735 40-452 R140Q/G260A): T1 sequence (P48735 40-452 R140Q) with G221A
Described as above. The format is cell-based. To be noted: 16 hours incubation, 50K cells/well, 100 μl media/well, read-out: Relative IC50 (nM) Mean, inhibition of 2-HG production. On the procedure:
as §1, §2, §3, §4, §5, §6, §7

The record followed here is patent US20240261294A1, “METHOD FOR TREATING IDH INHIBITOR-RESISTANT SUBJECTS” (Eli Lilly and Company, priority 2021, published 2024).

Where a chain is given by its changes, count along the chain named. Read-outs that look alike come from different tables or passages of the source.

In general, IC50 refers to the concentration at which inhibition is half-maximal. `C=CC(=O)N1CCN([C@@H](CC2CC2)c2ccc([C@H](C)Nc3ncc4c(n3)N(CC)C(=O)OC4)cc2)CC1` [Compound A, 7-[[(1S)-1-[4-[(1S)-2-cyclopropyl-1-(4-prop-2-enoylpiperazin-1-yl)ethyl]phenyl]ethyl]amino]-1-ethyl-4H-pyrimido[4,5-d][1,3]oxazin-2-one]: the IC50 at IDH2 R140Q + 1319M trans (IDH2 R140Q + 1319M trans, 150 μl media/well, read-out: IC50, inhibition of 2-HG production) stood at 12.7 nM; at IDH2 R140Q + 1319M trans (IDH2 R140Q_I319M trans, read-out: Relative IC50 (nM) Mean, inhibition of 2-HG production), 18 nM; on IDH2 R140Q_G260A cis it was 7 nM.
